The results in this text go back to PMC7403315, “Cyclic peptide FXII inhibitor provides safe anticoagulation in a thrombosis model and in artificial lungs” (Nature Communications, 2020).

The target of the assay is T1, recombinant pig FXIIa (Sus scrofa, UniProt O97507).
T1 construct: of FXII into a heavy chain (HC) and a light chain (LC); made in house; host or cells: CHO cells
T1 sequence (O97507 20-616): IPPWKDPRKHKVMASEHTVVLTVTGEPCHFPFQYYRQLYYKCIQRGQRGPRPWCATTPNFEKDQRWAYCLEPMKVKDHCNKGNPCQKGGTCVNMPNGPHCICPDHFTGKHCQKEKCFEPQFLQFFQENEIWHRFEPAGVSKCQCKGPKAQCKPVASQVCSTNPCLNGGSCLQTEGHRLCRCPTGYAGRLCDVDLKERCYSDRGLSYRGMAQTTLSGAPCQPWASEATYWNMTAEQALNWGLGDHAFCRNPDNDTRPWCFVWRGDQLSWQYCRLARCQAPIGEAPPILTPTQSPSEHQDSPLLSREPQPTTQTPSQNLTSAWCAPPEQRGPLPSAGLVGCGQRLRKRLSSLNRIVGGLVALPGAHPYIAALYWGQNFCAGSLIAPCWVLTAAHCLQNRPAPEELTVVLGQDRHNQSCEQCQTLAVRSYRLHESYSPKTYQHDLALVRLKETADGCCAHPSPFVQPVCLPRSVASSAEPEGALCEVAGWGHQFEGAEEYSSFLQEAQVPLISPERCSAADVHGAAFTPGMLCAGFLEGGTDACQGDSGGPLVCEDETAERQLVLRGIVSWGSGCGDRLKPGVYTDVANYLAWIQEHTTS
Description: Inhibition of recombinant FXIIa (rFXIIa). The assay is classed as biochemical. From the text: The protein sequences for human, rabbit and pig factor XII were taken from the following database entries: human FXII: UniProtKB - P00748; rabbit FXII: NCBI RefSeq - XP_008253687.1; pig FXII: UniProtKB - O97507. The sequences are shown in the Supplementary Methods. DNA encoding the full-length proteins were ordered from Eurofins Genomics. The codons in these sequences were optimized for mammalian expression using the codon optimization tool from Integrated DNA Technologies (IDT). In addition to the FXII gene, the ordered DNA sequences encode a C-terminal GSGS-linker, a His6-tag and a stop codon, and they are flanked by NheI (GCTAGC) and a HindIII (AAGCTT) restriction sites. The entire DNA sequences are provided in the supporting materials. The DNA sequences were cloned into the pEXPR-IBA42 vector downstream of a BM40 signal sequence for secreted expression in mammalian cells. The ligated vector was transformed into DH5 alpha electrocompetent E. coli cells. Plasmid DNA from single clones was sequenced by Sanger sequencing.
1.5 mg plasmid DNA was transfected into 500 ml CHO cells (Thermo Fisher Scientific) in cell suspension culture using polyethylenimine (PEI). Cells were incubated for seven days at 37 °C, 5% CO2 under shaking conditions. The cells were removed by centrifugation and the secreted protein was purified from the supernatant using a nickel-charged immobilized metal affinity chromatography (IMAC) column (5 ml HisTrap FF Crude, GE Healthcare). The column was equilibrated with buffer containing 15 mM imidazole, 100 mM NaCl, 20 mM Tris-HCl, pH 7.4. The pH of the cell culture supernatant was adjusted to 8.0 using NaOH. The supernatant was run through the column at a flow of 5 ml per min. The column was washed with 20 column volumes of equilibration buffer at a flow of 5 ml per min. The protein was eluted with 500 mM imidazole, 100 mM NaCl, 20 mM Tris-HCl, pH 7.4 at a flow of 5 ml per min. The buffer was subsequently exchanged to 100 mM NaCl, 20 mM Tris-HCl, pH 7.4 by three iterative steps of 10-fold dilution and 10-fold concentration using a 10,000 MWCO centrifugal concentrator. The concentration was determined by measuring absorption at 280 nm (ε = 100,000). For the activation of recombinant FXII, 10 μg protein was diluted to a total volume of 10 μl 100 mM NaCl, 20 mM Tris-HCl, pH 7.4 and further diluted with 10 μl of 2-fold concentrated assay buffer (300 mM NaCl, 20 mM MgCl2, 2 mM CaCl2, 20 mM Tris-HCl, 0.02% (v/v) Triton-X100, pH 7.4). Dextran sulfate 500 kDa (DXS500) was added to a final concentration of 0.2 μg μl^−1 and incubated for 1 hour at 37 °C. 5 μg protein was analyzed by SDS-PAGE under reducing conditions.
Protease inhibition assays
The inhibitory activity of peptides was determined by measuring the residual protease activity with a fluorogenic substrate. The assay was performed in buffer containing 10 mM Tris-Cl, pH […]
1% (v/v) DMSO in a volume of 150 µl. FXIIa activity was measured with the fluorogenic substrate Boc-Gln-Gly-Arg-AMC (Bachem) at a final concentration of 50 µM. Mouse α-FXIIa (Molecular Innovations cat # MFXIIA) and human β-FXIIa (Molecular Innovations cat # HFXIIAB) were used at final concentrations of 0.4 nM. The reaction was pipetted as follows: 50 µl of bicyclic peptide in assay buffer were added to 50 µl of FXIIa in assay buffer and incubated for 10 minutes at 25°C before 50 µl of 150 µM fluorogenic substrate in assay buffer were added to measure the residual protease activity with an Infinite M200Pro fluorescence plate reader (excitation at 368 nm, emission at 467 nm; Tecan) for a period of 30 minutes with a read every minute at 25°C. The Tecan software i-control (version 1.1) was used for data analysis. Stock solutions of 1 mM bicyclic peptide were prepared by either dissolving the unpurified cyclization reaction with water or by dissolving purified and lyophilized peptide in water. The bicyclic peptides were serially diluted two-fold using assay buffer. Sigmoidal curves were fitted to the […]

Each structure is given as a SMILES string. Where two headings read alike, the source gives them in different places. Starred links: 1 amine or outer side, 2 acyl side, 3 side chain; linkers in the order of their positions; H or OH if unused. Positions of bridges follow the written chain, without caps; N, C: chain ends. Non-standard residues stand in square brackets, D forms with d. Residues, ends and D or L forms follow the SMILES beside them. TATA = O=C(CC[*:1])N1CN(C(=O)CC[*:2])CN(C(=O)CC[*:3])C1; Phe(4-F) = N[C@@H](Cc1ccc(F)cc1)C(=O)O; β3hR = N=C(N)NCCC[C@H](N)CC(=O)O

Turning to `CC(C)C[C@@H]1NC(=O)[C@H](CCC(N)=O)NC(=O)[C@H](CCCNC(=N)N)NC(=O)[C@@H]2CSCCC(=O)N3CN(CN(C3)C(=O)CCSC[C@H](NC(=O)[C@@H](N)CCCNC(=N)N)C(=O)N[C@@H](Cc3ccccc3)C(=O)N[C@@H](CCCNC(=N)N)C(=O)N[C@@H](CC(C)C)C(=O)N3CCC[C@H]3C(=O)N2)C(=O)CCSC[C@@H](C(=O)N[C@@H](CCCNC(=N)N)C(N)=O)NC(=O)[C@H](CCCNC(=N)N)NC1=O` [FXII618], the remaining activity at 0.00195312 µM (Recombinant pig FXII, peptide 1.95312 nM, individual plates, read-out: Residual activity (%)) is 102%. In addition, the remaining activity at 0.00390625 µM (Recombinant pig FXII, peptide 3.90625 nM, individual plates, read-out: Residual activity (%)) amounted to 103%. In addition, the remaining activity at 0.0078125 µM (Recombinant pig FXII, peptide 7.8125 nM, individual plates, read-out: Residual activity (%)) was determined as 95.8%. Besides, under “Recombinant pig FXII, peptide 15.625 nM, individual plates, read-out: Residual activity (%)”, the remaining activity at 0.015625 µM turned out to be 92.8%. Besides, the remaining activity at 0.03125 µM (Recombinant pig FXII, peptide 31.25 nM, individual plates, read-out: Residual activity (%)) worked out at 87.6%. The remaining activity at 0.0625 µM (Recombinant pig FXII, peptide 62.5 nM, individual plates, read-out: Residual activity (%)) stood at 82.2%. For the same compound, the remaining activity at 0.125 µM (Recombinant pig FXII, peptide 125 nM, individual plates, read-out: Residual activity (%)) worked out at 71%. In addition, the remaining activity at […] (Recombinant pig FXII, peptide 250 nM, individual plates, read-out: Residual activity (%)) was 54.9%. For the same compound, the remaining activity at 0.5 µM (Recombinant pig FXII, peptide 500 nM, individual plates, read-out: Residual activity (%)) was 38%. Also, for the setting “Recombinant pig FXII, peptide 1000 nM, individual plates, read-out: Residual activity (%)”, the remaining activity at 1 µM is 21.5%. The remaining activity at 2 µM (Recombinant pig FXII, peptide 2000 nM, individual plates, read-out: Residual activity (%)) was determined as 14.6%.

A word on the Ki: it is the equilibrium dissociation constant of an inhibitor or competing ligand from its target. On to `CC(C)C[C@@H]1NC(=O)[C@H](CCC(N)=O)NC(=O)[C@H](Cc2c[nH]cn2)NC(=O)[C@@H]2CSCCC(=O)N3CN(CN(C3)C(=O)CCSC[C@H](NC(=O)[C@@H](CO)NC(=O)[C@H](N)CCCNC(=N)N)C(=O)N[C@@H](Cc3ccc(F)cc3)C(=O)N[C@@H](CCCNC(=N)N)C(=O)N[C@@H](CC(C)C)C(=O)N3CCC[C@H]3C(=O)N2)C(=O)CCSC[C@@H](C(N)=O)NC(=O)C[C@H](CCCNC(=N)N)NC1=O` [FXII900] (H-[dR][dS]C[Phe(4-F)]RLPCHQL[β3hR]C-NH2; linker 3-8-13 via TATA), for which the Ki was 17.4 ± 1.4 nM. Further, the remaining activity at 0.0005 µM (read-out: Residual activity (%), Recombinant pig FXII, peptide 0.5 nM, individual plates) stood at 99.6%. The remaining activity at 0.001 µM (read-out: Residual activity (%), Recombinant pig FXII, peptide 1 nM, individual plates) stood at 93.5%. In addition, where the note is “read-out: Residual activity (%), Recombinant pig FXII, peptide 2 nM, individual plates”, the remaining activity at 0.002 µM came to 91.1%. The remaining activity at 0.004 µM (read-out: Residual activity (%), Recombinant pig FXII, peptide 4 nM, individual plates) is 83.3%. Also, for the setting “read-out: Residual activity (%), Recombinant pig FXII, peptide 8 nM, individual plates”, the remaining activity at 0.008 µM was determined as 71.6%. Moreover, the remaining activity at […] (read-out: Residual activity (%), Recombinant pig FXII, peptide 16 nM, individual plates) amounted to 55.5%. In addition, the remaining activity at […] (read-out: Residual activity (%), Recombinant pig FXII, peptide 32 nM, individual plates) stood at 38.2%. For the same compound, the remaining activity at 0.064 µM (read-out: Residual activity (%), Recombinant pig FXII, peptide 64 nM, individual plates) is 23.5%. Also, the remaining activity at 0.128 µM (read-out: Residual activity (%), Recombinant pig FXII, peptide 128 nM, individual plates) came out at 11.5%. For the same compound, the remaining activity at 0.256 µM (read-out: Residual activity (%), Recombinant pig FXII, peptide 256 nM, individual plates) stood at 7.16%. The remaining activity at 0.512 µM (read-out: Residual activity (%), Recombinant pig FXII, peptide 512 nM, individual plates) is 5.15%.
